For assay [1], the target named is T1, RET (Homo sapiens, UniProt P07949).
T1 construct: RET JM-KD (residues 661–1012)
T1 sequence (P07949 661-1012): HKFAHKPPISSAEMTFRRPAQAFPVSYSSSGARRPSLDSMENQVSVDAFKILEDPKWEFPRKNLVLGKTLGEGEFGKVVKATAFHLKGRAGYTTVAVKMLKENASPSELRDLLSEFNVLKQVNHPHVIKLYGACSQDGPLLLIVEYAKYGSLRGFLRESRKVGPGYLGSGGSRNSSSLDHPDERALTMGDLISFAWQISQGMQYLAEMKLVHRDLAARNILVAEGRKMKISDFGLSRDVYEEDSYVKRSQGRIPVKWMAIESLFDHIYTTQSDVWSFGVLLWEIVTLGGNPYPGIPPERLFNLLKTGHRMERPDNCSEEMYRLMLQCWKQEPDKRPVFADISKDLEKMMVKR
As to the kind of experiment: isothermal titration calorimetry (ITC). It is filed as binding.

For assay [2], the target named is T2, RET (Homo sapiens, UniProt P07949).
T2 construct: RET JM-KD (residues 659–1013), phosphorylated (Y809, Y905, S909, Y928)
T2 sequence (P07949 659-1013): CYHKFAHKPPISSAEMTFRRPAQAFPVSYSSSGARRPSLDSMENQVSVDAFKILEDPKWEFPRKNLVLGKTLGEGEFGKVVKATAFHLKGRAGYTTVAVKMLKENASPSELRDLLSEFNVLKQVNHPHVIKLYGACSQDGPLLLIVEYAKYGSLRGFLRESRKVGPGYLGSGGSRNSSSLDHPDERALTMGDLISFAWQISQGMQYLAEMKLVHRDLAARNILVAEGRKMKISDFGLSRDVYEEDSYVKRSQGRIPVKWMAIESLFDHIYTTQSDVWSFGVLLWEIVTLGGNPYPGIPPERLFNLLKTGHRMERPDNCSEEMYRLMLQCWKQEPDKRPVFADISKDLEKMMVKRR
In words: X-ray crystal structures ([…] Å and […] Å). It is filed as binding.

Two molecules from PMC5199340, “RET Functions as a Dual-Specificity Kinase that Requires Allosteric Inputs from Juxtamembrane Elements” (Cell Reports, 2016) can be followed below.

What is called Kd is the concentration at which binding is half-saturated. Higher therefore signals lower affinity. For `Nc1ncnc2c1ncn2[C@@H]1O[C@H](COP(=O)(O)OP(=O)(O)OP(=O)(O)O)[C@@H](O)[C@H]1O` [ATP], binding in assay [1] was characterised by a dissociation constant (Kd) of 37.5 ± 3.1 µM. Consider `Cc1ccc(-c2nn(C(C)(C)C)c3ncnc(N)c23)cc1` [PP1], for which the “X-ray crystal structures (2.95 Å and 3.3 Å)” value in assay [2] is listed as “Both crystal structures contained the PP1 tyrosine kinase inhibitor in the nucleotide-binding pocket”.
